Data taken from patent US9676751B2, “2-amino-3-ester-pyridl orexin receptor antagonists” (MERCK SHARP & DOHME CORP., priority 2013, dated 2017).
pIC50: −log10 of the molar value.

How the values were obtained:
human orexin-2 receptor = molecular target: T1, human orexin-2 receptor (Homo sapiens, UniProt O43614); test: FLIPR Ca2+ Flux Assay, CHO cells expressing the human orexin-2 receptor; assay type: cell-based; settings: agonist 70 pM Ala-6,12 orexin-A, read-out: hOX2R FLIPR IC50
T1 construct: expressed in transfected cells; host or cells: CHO cells
T1 sequence (O43614 1-444): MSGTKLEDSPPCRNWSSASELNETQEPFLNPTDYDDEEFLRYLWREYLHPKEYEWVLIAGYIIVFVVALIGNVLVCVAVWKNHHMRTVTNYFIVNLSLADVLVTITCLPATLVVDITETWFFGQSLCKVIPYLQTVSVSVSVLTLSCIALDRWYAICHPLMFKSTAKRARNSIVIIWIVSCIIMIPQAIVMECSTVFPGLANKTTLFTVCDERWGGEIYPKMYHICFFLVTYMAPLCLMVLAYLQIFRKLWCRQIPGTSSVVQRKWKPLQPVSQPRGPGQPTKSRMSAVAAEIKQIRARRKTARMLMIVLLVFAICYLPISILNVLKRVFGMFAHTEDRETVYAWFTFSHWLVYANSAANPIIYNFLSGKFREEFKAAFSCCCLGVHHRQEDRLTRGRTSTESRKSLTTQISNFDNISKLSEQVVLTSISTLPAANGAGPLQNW
Method: The utility of the compounds in accordance with the present invention as orexin receptor OX1R and/or OX2R antagonists may be readily determined without undue experimentation by methodology well known in the art, including the “FLIPR Ca^2+ Flux Assay” (Okumura et al., Biochem. Biophys. Res. Comm. 280:976-981, 2001). In a typical experiment the OX1 and OX2 receptor antagonistic activity of the compounds of the present invention was determined in accordance with the following experimental method. For intracellular calcium measurements, Chinese hamster ovary (CHO) cells expressing the rat orexin-1 receptor or the human orexin-2 receptor, are grown in Iscove's modified DMEM containing 2 mM L-glutamine, […], 1% hypoxanthine-thymidine supplement, 100 U/ml penicillin, 100 μg/ml streptomycin and 10% heat-inactivated fetal calf serum (FCS). The cells are seeded at 20,000 cells/well into Becton-Dickinson black 384-well clear bottom sterile plates coated with poly-D-lysine. All reagents were from GIBCO-Invitrogen Corp. The seeded plates are incubated overnight at 37° C. and 5% CO2. Ala-6,12 human orexin-A as the agonist is prepared as a 1 mM stock solution in 1% bovine serum albumin (BSA) and diluted in assay buffer (HBSS containing 20 mM HEPES, 0.1% BSA and 2.5 mM probenecid, pH7.4) for use in the assay at a final concentration of 70 pM. Test compounds are prepared as 10 mM stock solution in DMSO, then diluted in 384-well plates, first in DMSO, then assay buffer. On the day of the assay, cells are washed 3 times with 100 μl assay buffer and then incubated for 60 min (37° C., 5% CO2) in 60 μl assay buffer containing 1 μM Fluo-4AM ester, 0.02% pluronic acid, and 1% BSA. The dye loading solution is then aspirated and cells are washed 3 times with 100 μl assay buffer. 30 μl of that same buffer is left in each well. Within the Fluorescent Imaging Plate Reader (FLIPR, Molecular Devices), test compounds are added to the plate in a volume of 25 μl, incubated for 5 min and finally 25 μl of agonist is added. Fluorescence is measured for each well at 1 second intervals for 5 minutes and the height of each fluorescence peak is compared to the height of the fluorescence peak induced by 70 pM Ala-6,12 orexin-A with buffer in place of antagonist. For each antagonist, IC50 value (the concentration of compound needed to inhibit 50% of the agonist response) is determined. Alternatively, compound potency can be assessed by a radioligand binding assay (described in Bergman et. al. Bioorg. Med. Chem. Lett. 2008, 18, 1425-1430) in which the inhibition constant (Ki) is determined in membranes prepared from CHO cells expressing either the OX1 or OX2 receptor. The intrinsic orexin receptor antagonist activity of a compound which may be used in the present invention may be determined by these assays.

hOX1R = molecular target: T2, hOX1R (Homo sapiens, UniProt O43613); test: FLIPR Ca2+ Flux Assay, CHO cells expressing the orexin-1 receptor; assay type: cell-based; settings: agonist 70 pM Ala-6,12 orexin-A
T2 construct: expressed in transfected cells; host or cells: CHO cells
T2 sequence (O43613 1-425): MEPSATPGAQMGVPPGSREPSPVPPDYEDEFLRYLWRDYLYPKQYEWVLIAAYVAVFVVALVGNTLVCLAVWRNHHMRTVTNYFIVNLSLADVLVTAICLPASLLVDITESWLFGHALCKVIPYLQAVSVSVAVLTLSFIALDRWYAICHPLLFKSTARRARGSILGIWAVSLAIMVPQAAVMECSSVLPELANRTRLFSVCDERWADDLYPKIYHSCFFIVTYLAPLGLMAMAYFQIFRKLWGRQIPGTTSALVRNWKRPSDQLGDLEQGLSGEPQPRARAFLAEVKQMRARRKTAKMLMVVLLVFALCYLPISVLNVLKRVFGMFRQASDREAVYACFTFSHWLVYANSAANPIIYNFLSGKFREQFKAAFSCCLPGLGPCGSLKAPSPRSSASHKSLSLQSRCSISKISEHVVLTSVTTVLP

COC(=O)c1c(OC)ccnc1N[C@@H]1CC[C@@H](C)N(C(=O)c2cccc(F)c2-c2noc(C)n2)C1 [Example 9, methyl 2-{[(3R,6R)-1-{[3-fluoro-2-(5-methyl-1,2,4-oxadiazol-3-yl)phenyl]carbonyl}-6-methylpiperidin-3-yl]amino}-4-methoxypyridine-3-carboxylate]
pIC50 (human orexin-2 receptor): 7.24 | pIC50 (hOX1R): 6.63
